One compound from article PMC10046037, “GABRG2 Variants Associated with Febrile Seizures” (Biomolecules, 2023) can be followed below.

The target of the experiment is T1, α1β3γ2 GABAA receptor, γ2R215H variant (Homo sapiens, UniProt P14867+P18507+P28472, R215H).
T1 construct: expressed in transfected cells; host or cells: HEK293T
T1 sequence (P14867 28-456): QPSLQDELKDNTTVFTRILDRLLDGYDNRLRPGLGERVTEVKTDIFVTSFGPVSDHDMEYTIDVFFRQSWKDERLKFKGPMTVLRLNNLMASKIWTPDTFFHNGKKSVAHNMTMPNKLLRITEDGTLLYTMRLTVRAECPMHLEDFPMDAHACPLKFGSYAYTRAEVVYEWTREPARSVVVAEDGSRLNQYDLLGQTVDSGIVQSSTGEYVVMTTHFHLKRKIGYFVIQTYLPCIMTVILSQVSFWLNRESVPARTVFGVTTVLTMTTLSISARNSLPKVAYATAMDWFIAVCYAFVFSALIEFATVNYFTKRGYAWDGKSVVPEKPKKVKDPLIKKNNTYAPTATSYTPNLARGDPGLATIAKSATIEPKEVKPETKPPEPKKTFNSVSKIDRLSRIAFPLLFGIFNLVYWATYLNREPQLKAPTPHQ
T1 sequence (P28472 26-473 isoform P28472-2): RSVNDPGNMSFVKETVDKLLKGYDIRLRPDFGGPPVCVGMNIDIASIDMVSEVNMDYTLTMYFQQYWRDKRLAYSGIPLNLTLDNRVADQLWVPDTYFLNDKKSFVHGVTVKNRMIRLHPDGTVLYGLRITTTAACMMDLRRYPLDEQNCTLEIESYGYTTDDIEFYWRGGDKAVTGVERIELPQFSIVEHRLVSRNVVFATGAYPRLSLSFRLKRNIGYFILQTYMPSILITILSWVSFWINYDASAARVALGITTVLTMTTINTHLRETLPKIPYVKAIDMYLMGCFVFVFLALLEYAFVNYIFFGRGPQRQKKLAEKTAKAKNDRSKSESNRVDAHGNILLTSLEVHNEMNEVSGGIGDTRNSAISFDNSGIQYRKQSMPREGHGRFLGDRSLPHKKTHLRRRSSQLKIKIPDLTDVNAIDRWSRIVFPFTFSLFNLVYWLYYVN
T1 sequence (P18507 40-475 R215H): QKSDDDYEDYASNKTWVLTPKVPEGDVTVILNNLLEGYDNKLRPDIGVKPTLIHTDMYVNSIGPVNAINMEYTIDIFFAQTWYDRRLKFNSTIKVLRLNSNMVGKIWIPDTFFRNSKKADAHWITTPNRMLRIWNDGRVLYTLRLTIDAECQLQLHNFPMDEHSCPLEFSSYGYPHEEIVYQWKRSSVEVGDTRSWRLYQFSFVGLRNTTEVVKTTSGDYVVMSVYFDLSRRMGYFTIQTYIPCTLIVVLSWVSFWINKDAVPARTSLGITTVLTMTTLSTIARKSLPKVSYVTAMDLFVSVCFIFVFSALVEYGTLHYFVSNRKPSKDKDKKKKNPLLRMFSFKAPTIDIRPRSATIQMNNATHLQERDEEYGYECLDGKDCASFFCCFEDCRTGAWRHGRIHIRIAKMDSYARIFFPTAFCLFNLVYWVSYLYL
Nature of the experiment: Automated patch clamp of GABA-elicited currents (SyncroPatch 384PE), γ2R215H. The class given is cell-based. The following applies: mean. Here is the method: The coding sequences of human α1 (GABRA1, NM_000806), β3 (GABRB3, NM_021912), and γ2 (GABRG2, NM_198904.2) GABAAR subunits were subcloned into the pcDNA3.1 expression vectors (Invitrogen, Waltham, MA, USA).
HEK293T cells (ATCC, CRL-11268) were cultured at 37 °C in a humidified 5% CO2 incubator and maintained in Dulbecco’s modified Eagle’s medium (Invitrogen) supplemented with 10% fetal bovine serum (Life Technologies, Carlsbad, CA, USA), and 100 IU/mL of penicillin/streptomycin (Life Technologies). For the expression experiments, 4 × 10^5 cells were transfected using polyethylenimine (PEI) reagent (40 kD, Polysciences, Warrington, PA, USA) at a DNA: to transfection reagent ratio of 1:2.5 and harvested 36 h after transfection. To express WT and variant α1β3γ2 receptors, a total of 3 µg of α1, β3, and γ2 (WT or mutant) subunit cDNAs were transfected at a ratio of 1:1:1 into 60 mm culture dishes. For the mock-transfected condition, an empty pcDNA3.1 vector was added for a final cDNA transfection amount of 3 μg. For the electrophysiology experiments, 2.5 × 10^5 cells were plated in 100 mm culture dishes and transfected after 24 h with 3 μg of cDNA of each α1, β3, γ2 (wild-type or mutant) subunit, using X-tremeGENE HP DNA transfection Reagent (Roche Diagnostics, Basel, Switzerland), following the manufacturer’s protocol. Recordings were obtained forty-eight hours after transfection.
Whole-cell patch clamp recordings were conducted according to the manufacturer’s standard procedure for the SyncroPatch 384 [31]. […] Using PatchControl 384, electrophysiological parameters, such as seal resistance, capacitance, and series resistance, were determined for each well after the application of a test pulse, and subsequently monitored over time. […] The currents were normalized to the maximal response of each well, and the concentration–response curves were calculated from single-point additions. The EC50 values for each variant or wild-type receptor were calculated across multiple wells for each experimental condition.
Background: The patch-clamp technique gives a direct electrical read-out from membranes.

Regarding `NCCCC(=O)O` [GABA, γ-aminobutyric acid], the “IMAX (maximal GABA-evoked peak current)” value (1 mM GABA for 5 ms, HEK293T) was 0.61 nA. Further, the “IMAX variant/IMAX WT” value (1 mM GABA) is on record as 30.44%. In addition, the “Rise Time” value (10–90% rise time, 1 mM GABA for 5 ms, HEK293T) was found to be 31.68 ms.
